Values after ≈ are worked out from the molar mass of the structure shown. Where two headings read alike, the source gives them in different places.
Key:
[1] = tested on: rabbit platelet aggregation; assay: Inhibition of rabbit platelet aggregation (turbidimetric, platelet rich plasma); assay type: cell-based, rabbit (male Japanese White); conditions: Oryctolagus cuniculus
Experimental: Inhibitory activity of the nitro aliphatic compounds of this invention against rabbit platelet aggregation was measured according to the method described below.
Blood was collected from the central ear arteries of male Japanese White rabbit (2.5 to 3.0 kg body weight). The blood was prevented from coagulation with 1 volume of 3.8% sodium citrate to 9 volumes of blood. Platelet rich plasma (PRP) was prepared by centrifugation of the blood at 1300 rpm for 10 min. at 10° C. The PRP was diluted with platelet poor plasma obtained by further centrifugation of the blood at 3000 rpm for 10 min. The platelet counts in the PRP used for aggregation studies were about 4.0×10^5 platelets/mm^3. Aggregometry was performed with platelet aggregating agents in a SIENCO dual sample aggregometer (DP-247E) at 37° C., using 0.3 ml combined volume of PRP and reagents in a cylindrical glass cuvette under constant stirring with a magnetic stirring bar. Platelet aggregation was measured turbidimetrically by recording changes in the light transmission of PRP during aggregation. Activities of inhibitors were expressed as IC50 values i.e. concentrations required to inhibit the platelet aggregation responses by 50%. Collagen was used in amounts (2 to 20 μg/ml for PRP) sufficient to induce a response that was 80 to 90% of the maximum obtainable. Arachidonic acid was used at a final concentration of 5 μM. Similarly a final concentration of adenosine di-phosphate (ADP), usually 1 to 5 μM was choosen to induce approximately 75% of the maximum aggregation. Thrombin was used at a final concentration of 0.3 U/ml.

blood pressure = assay: Hypotensive activity in anesthetized rat; assay type: in vivo, rat (Sprague-Dowley); conditions: intravenous, urethane-anesthetized rat
Experimental: A 8 weeks-old Sprague-Dowley strain rat was anesthetized with urethane (0.7 g/kg, i.p). Blood pressure was recorded from femoral artery using a transducer coupled to a Biophysiograph 180 system (made by Sanei Sokuki Co., Ltd.). The femoral vein was cannulated to permit intravenous injection of the test compound. The test compound was dissolved in saline and injected in a volume of 0.2 ml.

[2] = Inducer: Thrombin (0.3 U/ml), Table 2, read-out: IC50, platelet aggregation

SMILES	IC50 [1, 2] [µg/mL]	also measured
CCC(=CC(=NO)C(=O)N1CCN(C=O)CC1)C(C)[N+](=O)[O-] (stereo not drawn) [Example 4, 1-Formyl-4-(4-ethyl-2-hydroxyimino-5-nitro-3-hexenoyl)piperazine]	0.3 (≈ 0.961 µM)	–
CCC(=CC(COC(C)=O)=NO)C(C)[N+](=O)[O-] (stereo not drawn) [Example 23, 1-Acetoxy-4-ethyl-2-hydroxyimino-5-nitro-3-hexene]	0.15 (≈ 0.614 µM)	–
CCC(=CC(C#N)=NO)C(C)[N+](=O)[O-] (stereo not drawn) [Example 17, 4-Ethyl-2-hydroxyimino-5-nitro-3-hexenenitrile]	1.5 (≈ 7.61 µM)	–
CCC(=CC(=NO)C(=O)N[C@H](C(=O)O)[C@@H](C)O)C(C)[N+](=O)[O-] (stereo partly drawn) [Example 10, N-(4-Ethyl-2-hydroxyimino-5-nitro-3-hexenoyl)-L-threonine]	0.3 (≈ 0.945 µM)	–
CCC(=CC(C=NO)=NO)C(C)[N+](=O)[O-] (stereo not drawn) [Example 21, 4-ethyl-2-hydroxyimino-5-nitro-3-hexenaldehyde oxime]	0.15 (≈ 0.697 µM)	–
CCC(=CC=NO)C(C)[N+](=O)[O-] (stereo not drawn) [Example 28, 3-ethyl-4-nitro-2-pentenaloxime]	6 (≈ 34.8 µM)	–
CCC(=CC(C=O)=NO)C(C)[N+](=O)[O-] (stereo not drawn) [Example 18, 4-Ethyl-2-hydroxyimino-5-nitro-3-hexenal]	3 (≈ 15 µM)	–
CC/C(=C\C(=NO)C(N)=O)C(C)[N+](=O)[O-] (stereo not drawn) [Example 1, (E)-4-ethyl-2-hydroxyimino-5-nitro-3-hexenamide]	–	IC50 ([1]; inducer: ADP (usually 1 to 5 μM), read-out: IC50 value, platelet aggregation): 0.15 µg/mL (≈ 0.697 µM); IC50 ([1]; inducer: Arachidonic acid (5 μM), read-out: IC50 value, platelet aggregation): 0.75 µg/mL (≈ 3.48 µM); IC50 ([1]; inducer: Collagen (2 to 20 μg/ml), read-out: IC50 value, platelet aggregation): 0.07 µg/mL (≈ 0.325 µM); IC50 ([1]; inducer: Thrombin (0.3 U/ml), Table 1, read-out: IC50 value, platelet aggregation): 0.15 µg/mL (≈ 0.697 µM); Hypotensive effect, Duration (blood pressure; 10 μg/kg): 1.5 min; Hypotensive effect, Maximal decrease (blood pressure; 10 μg/kg): 10 mm Hg; Hypotensive effect, Duration (blood pressure; 100 μg/kg): 4 min; Hypotensive effect, Maximal decrease (blood pressure; 100 μg/kg): 40 mm Hg
CCC(CC(=NO)C(N)=O)C(C)[N+](=O)[O-] (stereo not drawn) [Example 25, 4-Ethyl-2-hydroxyimino-5-nitro-hexanamide]	6 (≈ 27.6 µM)	–
CCC(=CC(=NO)C(N)=O)C(c1ccc(OC)cc1)[N+](=O)[O-] (stereo not drawn) [Example 14, 4-Ethyl-2-hydroxyimino-5-(4-methoxyphenyl)-5-nitro-3-pentenamide]	0.3 (≈ 0.976 µM)	–
CCC(=CC(=NO)C(=O)N1CCCCC1)C(C)[N+](=O)[O-] (stereo not drawn) [Example 7, N-(4-Ethyl-2-hydroxyimino-5-nitro-3-hexenoyl)piperidine]	0.75 (≈ 2.65 µM)	–
CCC(CC(=NO)C(=O)NC(C)(C)C)C(C)[N+](=O)[O-] (stereo not drawn) [Example 24, N-t-butyl-4-ethyl-2-hydroxyimino-5-nitrohexanamide]	1.5 (≈ 5.49 µM)	–
CCC(=CC(CO)=NO)C(C)[N+](=O)[O-] (stereo not drawn) [Example 22, 4-ethyl-2-hydroxyimino-5-nitro-3-hexen-1-ol]	0.75 (≈ 3.71 µM)	–
CCC(=CC(=NO)C(=O)NCc1ccccc1)C(C)[N+](=O)[O-] (stereo not drawn) [Example 11, N-Benzyl-4-ethyl-2-hydroxyimino-5-nitro-3-hexenamide]	0.15 (≈ 0.491 µM)	–
CCC(=CC(=NO)C(=O)NCCCC(=O)O)C(C)[N+](=O)[O-] (stereo not drawn) [Example 15, N-[4-Ethyl-2-hydroxyimino-5-nitro-3-hexenoyl]-4-aminobutyric acid]	0.75 (≈ 2.49 µM)	–

The next lines start with results.

IC50 [1, 2] [µg/mL]	SMILES	also measured
0.15 (≈ 0.549 µM)	CCC(=CC(=NO)C(=O)NCC(=O)O)C(C)[N+](=O)[O-] (stereo not drawn) [Example 6, N-(4-Ethyl-2-hydroxyimino-5-nitro-3-hexenoyl)glycine]	–
0.15 (≈ 0.522 µM)	CCC(=CC(=NO)C(=O)NCC(=O)OC)C(C)[N+](=O)[O-] (stereo not drawn) [Example 20, Methyl 2-[4-ethyl-2-hydroxyimino-5-nitro-3-hexenoylamino]acetate]	–
0.15 (≈ 0.553 µM)	CCCCNC(=O)C(C=C(CC)C(C)[N+](=O)[O-])=NO (stereo not drawn) [Example 2, N-n-butyl-4-ethyl-2-hydroxyimino-5-nitro-3-hexenamide]	–
0.07 (≈ 0.287 µM)	CCOC(=O)C(C=C(CC)C(C)[N+](=O)[O-])=NO (stereo not drawn) [Example 19, Ethyl 4-ethyl-2-hydroxyimino-5-nitro-3-hexenoate]	–
0.3 (≈ 1.31 µM)	CCC(=CC(=NO)C(=O)NC)C(C)[N+](=O)[O-] (stereo not drawn) [Example 3, N-Methyl-4-ethyl-2-hydroxyimino-5-nitro-3-hexenamide]	–

Reference: patent US4767768A, “Nitro aliphatic compounds, process for preparation thereof and use thereof” (Fujisawa Pharmaceutical Co., Ltd., priority 1982, dated 1988)
